ChEMBL document CHEMBL5131544, “Two-Photon Photodynamic Therapy Targeting Cancers with Low Carboxylesterase 2 Activity Guided by Ratiometric Fluorescence” (J Med Chem, 2022)
Active and inactive are the calls of the source. No cut-off for these calls is given here.

Tests used:
[1] = Induction of ROS production in DBPS at pH 7.4 assessed as DCF production at 20 uM upon 415 nm light irradiation by fluorescence spectra analysis; format: functional
[2] = Dark toxicity against human PANC-1 cells assessed as reduction in cell viability after 3 hrs by MTT assay; format: cell-based
[3] = Dark toxicity against human A549 cells assessed as reduction in cell viability after 3 hrs by MTT assay; format: cell-based
[4] = test system: PANC-1; assay: Induction of ROS production in human PANC-1 cells at 20 uM incubated for 3 hrs under 415 nm light irradiation by DCFH-DA staining based fluorescence microscopic analysis; format: functional, cell-based
[5] = test system: PANC-1; assay: Induction of apoptosis in human PANC-1 cells assessed as necrosis at 20 uM preincubated for 3 hrs followed by compound washout and 415 nm light irradiation for 10 mins and measured after 24 hrs post irradiation by Hoeschst-33342/PI staining based assay; format: functional, cell-based
[6] = test system: PANC-1; assay: Induction of cell death in human PANC-1 cells assessed as […] cleavage at 20 uM after 6 hrs under 900 nm light irradiation by two-photon based Western blotting analysis; format: functional
[7] = test system: PANC-1; assay: Induction of cell death in human PANC-1 cells assessed as reduction in cell viability preincubated for 3 hrs followed by compound washout and immediate 900 nm light irradiation and measured 1 hr post light irradiation by two-photon based MTT assay; format: functional
[8] = test system: PANC-1; assay: Induction of apoptosis in human PANC-1 cells assessed as shrinkage of cells at 20 uM preincubated for 3 hrs followed by compound washout and 415 nm light irradiation for 10 mins and measured after 24 hrs post irradiation by Hoeschst-33342/PI staining based assay; format: functional, cell-based
[9] = Drug uptake in human PANC-1 cells at 0.5 to 20 uM after 3 hrs under 900 nm light irradiation by two-photon based fluorescence imaging assay; format: ADME, cell-based; settings: panc-1, 3 h, dose 0.5-20 µM
[10] = test system: MCF7; assay: Induction of ROS production in human MCF7 cells at 20 uM incubated for 3 hrs under 415 nm light irradiation by DCFH-DA staining based fluorescence microscopic analysis; format: functional, cell-based
[11] = Dark toxicity against human MCF7 cells assessed as reduction in cell viability after 3 hrs by MTT assay; format: cell-based
[12] = Induction of singlet oxygen production assessed as singlet oxygen quantum yield at 20 uM upon 415 nm light irradiation by ABDA assay; format: functional
[13] = test system: PANC-1; assay: Induction of cell death in human PANC-1 cells assessed as reduction in cell viability preincubated for 2 hrs followed by compound washout and immediate 900 nm light irradiation and measured 1 hr post light irradiation by two-photon based ReadyProbes blue/green imaging analysis; format: functional
[14] = test system: MCF7; assay: Phototoxicity against human MCF7 cells assessed as reduction in cell viability after 3 hrs followed by compound washout and 415 nm light irradiation measured after overnight incubation by MTT assay; format: functional
[15] = test system: PANC-1; assay: Induction of apoptosis in human PANC-1 cells at 20 uM preincubated for 3 hrs followed by compound washout and 415 nm light irradiation for 10 mins and measured after 20 mins post irradiation by Annexin V-FITC staining based assay; format: functional, cell-based
[16] = test system: PANC-1; assay: Induction of apoptosis in human PANC-1 cells at 20 uM preincubated for 3 hrs followed by compound washout and 415 nm light irradiation for 10 mins and measured after 4 to 24 hrs post irradiation by Annexin V-FITC staining based assay; format: functional, cell-based
[17] = test system: PANC-1; assay: Phototoxicity against human PANC-1 cells assessed as reduction in cell viability after 3 hrs followed by compound washout and 415 nm light irradiation measured after overnight incubation by MTT assay; format: functional
[18] = test system: PANC-1; assay: Antitumor activity against human PANC-1 tumor spheroids at 20 uM preincubated for 3 hrs followed by compound washout and 900 nm light irradiation by two-photon baseReadyProbes blue/green imaging analysis; format: functional, cell-based
[19] = test system: PANC-1; assay: Induction of apoptosis in human PANC-1 cells at 20 uM preincubated for 3 hrs followed by compound washout and 415 nm light irradiation for 10 mins and measured after 1 hr post irradiation by Annexin V-FITC staining based assay; format: functional, cell-based
[20] = test system: A549; assay: Phototoxicity against human A549 cells assessed as reduction in cell viability after 3 hrs followed by compound washout and 415 nm light irradiation measured after overnight incubation by MTT assay; format: functional
[21] = test system: PANC-1; assay: Induction of apoptosis in human PANC-1 cells assessed as caspase 3 cleavage at 20 uM preincubated for 3 hrs followed by compound washout and 415 nm light irradiation for 10 mins and measured after 20 to 1440 mins post irradiation by Western blot analysis; format: functional, cell-based
[22] = test system: PANC-1; assay: Induction of apoptosis in human PANC-1 cells assessed as membrane decomposition at 20 uM preincubated for 3 hrs followed by compound washout and 415 nm light irradiation for 10 mins and measured after 24 hrs post irradiation by Hoeschst-33342/PI staining based assay; format: functional, cell-based
[23] = Dark toxicity against human HepG2 cells assessed as reduction in cell viability after 3 hrs by MTT assay; format: cell-based
[24] = test system: PANC-1; assay: Induction of cell morphological changes in human PANC-1 cells at 20 uM preincubated for 2 hrs followed by compound washout and 900 nm light irradiation measured after 1 hr post irradiation by two-photon based bright field imaging analysis; format: functional
[25] = test system: HepG2; assay: Phototoxicity against human HepG2 cells assessed as reduction in cell viability after 3 hrs followed by compound washout and 415 nm light irradiation measured after overnight incubation by MTT assay; format: functional; settings: HepG2, light or radiation study
[26] = test system: PANC-1; assay: Induction of ROS production in human PANC-1 cells at 20 uM preincubated for 3 hrs followed by compound washout and 900 nm light irradiation by DCFH-DA staining based two-photon fluorescence microscopy analysis; format: functional, cell-based
[27] = PANC-1, light or radiation study

O=C(Nc1ccc2c3c(cccc13)C(=O)C=C2)c1ccccc1
Activity [1]: Active | CC50 at 3 h [2]: > 32 µM | CC50 at 3 h [3]: > 32 µM | Activity [4]: Active | Activity [5]: Active | Activity [6]: Active | Activity ([7]; DDE = dose-dependent effect): Dde | CC50 [7, 27]: 0.647 µM | Activity [8]: Active | Drug uptake [9]: Active | Activity [10]: Active | CC50 at 3 h [11]: > 32 µM | Activity [12]: 0.18 | Activity ([13]; DDE = dose-dependent effect): Dde | CC50 [13, 27]: 0.647 µM | Activity ([14]; DDE = dose-dependent effect): Dde | CC50 ([14]; MCF7, light or radiation study): 1.6 µM | Activity [15]: Active | Activity [16]: Active | Activity ([17]; DDE = dose-dependent effect): Dde | CC50 [17, 27]: 1.4 µM | Activity [18]: Active | Activity [19]: Active | CC50 ([20]; A549, light or radiation study): 4.4 µM | Activity ([20]; DDE = dose-dependent effect): Dde | Activity [21]: Active | Activity [22]: Active | CC50 at 3 h [23]: > 32 µM | Activity [24]: Active | CC50 [25]: > 32 µM | Activity [26]: Active
